The test relates to kidney cancer. Briefly: Kidney cancer activity by FDG PET/CT during mTOR inhibitor therapy. It counts as in vivo, human. The method, then: A change in blood PARK7 concentration was observed during treatment in four patients with kidney cancer who began to receive administration of mTOR inhibitor. The blood PARK7 concentration was measured as a concentration of plasma PARK7 with the commercially available ELISA kit in the same manner as in 1, described above, and the change in blood PARK7 level was evaluated by comparing values detected by a luminometer. The therapeutic effect of the mTOR inhibitor was clinically evaluated by FDG PET/CT. Kidney cancer progression was evaluated by FDG PET/CT, in parallel with the measurement of blood PARK7 concentration. FDG is an agent composed of glucose and a positron-emitting nuclide introduced thereto, and it has almost the same behavior in the body as glucose. […] The SUVmax values indicated below the respective images are semi-quantified values of FDG accumulation.

Molecules are shown by their SMILES.

Turning to `CO[C@H]1C[C@@H]2CC[C@@H](C)[C@@](O)(O2)C(=O)C(=O)N2CCCC[C@H]2C(=O)O[C@H]([C@H](C)C[C@@H]2CC[C@@H](OC(=O)C(C)(CO)CO)[C@H](OC)C2)CC(=O)[C@H](C)/C=C(\C)[C@@H](O)[C@@H](OC)C(=O)[C@H](C)C[C@H](C)/C=C/C=C/C=C/1C` [Temsirolimus], the “accumulation of FDG (PET/CT)” value is on record as “no change in accumulation of FDG” (patient with kidney cancer, Case No. 4 (one case)) and “decreased accumulation of FDG” (patients with kidney cancer, Case Nos. 1 to 3 (three cases)).
